Experimental data taken from ChEMBL document CHEMBL1124604, “Synthesis and benzodiazepine receptor affinities of rigid analogues of 3-carboxy-beta-carbolines: demonstration that the benzodiazepine receptor recognizes preferentially the s-cis conformation of the 3-carboxy group” (J Med Chem, 1989).

Test: In vitro inhibition of [3H]flunitrazepam binding to GABA-A receptor of rat cerebral cortex membranes
Format: cell membranes, Membrane

Row | SMILES | IC50 [nM]
1 | CNC(=O)c1cc2c(cn1)[nH]c1ccccc12 | 197
2 | O=C1OCCc2c1[nH]cc1nc3ccccc3c2-1 | 42
3 | CCOC(=O)c1cc2c(cn1)[nH]c1ccccc12 | 7
4 | O=C1NCCc2c1[nH]cc1nc3ccccc3c2-1 | 150
5 | CCc1c(C(=O)OC)[nH]cc2nc3ccccc3c1-2 | 27
6 | CCc1c(C(=O)NC)[nH]cc2nc3ccccc3c1-2 | > 10000
7 | COC(=O)c1cc2c(cn1)[nH]c1ccccc12 [BETA-CCM] | 3.5
